Reference: US7550469B2, “Heterocyclic amide derivatives and their use as dopamine D3 receptor ligands” (Aventis Pharmaceuticals Inc., priority 2001, dated 2009)
pKi: −log10 of the molar value.

Target: T1, cloned human dopamine D3 receptors (Homo sapiens, UniProt P35462)
T1 construct: expressed in transfected cells; membrane homogenate
Assay: [N-Methyl-3H]Spiroperidol binding to cloned human dopamine D3 receptors (Protocol 1)
Settings: the 13th table, unit inferred; read-out: D3Ki
Excerpt: [N-Methyl-^3H]Spiroperidol Binding to Cloned Human Dopamine D3 Receptors
This assay measures the in vitro activity of compounds on cloned human dopamine (D3) receptors and predicts the direct dopamine-blocking properties of putative neuropsychiatric agents at human dopamine D3 receptors.
The D3 gene was isolated from a human striatal cDNA library (Stratagene). The gene was sequenced and sub-cloned into the expression vector RC/RSV (Invitrogen). CHO (Chinese Hamster Ovary) cells were stably transfected with 10 μg of the D3/RSV plasmid using the DOTAP method from Boehringer Mannheim and 72 clones that were G418 resistant were isolated. Using mRNA and binding displacement data a single high expressing clone was identified. This clone was then grown in large batches for the purpose of developing a 96 well format assay.
• 1. One plate (10 cm) with approximately 2-3 million D3 cells per plate is incubated with 1 ml of Trypsin-EDTA at room temperature for ˜2 min or until cells have lifted off plates. Four ml of Ham's F12+10% Fetal Bovine Serum+1% Penicillin/Streptomycin+G418 (400 μg/ml) medium are added to resuspend cells and 1 ml of this is added to each large plate (15 cm) containing 19 ml of the-same medium as mentioned above. • 2. The 5 large plates are incubated at 37° C.+5% CO2 for ˜3 days or until the cells are confluent. • 3. After these plates are confluent, they are split into 10 large plates. Medium is aspirated off, 2 ml of Trypsin-EDTA are added to each plate and plates are incubated at RT for 2 min or until cells have lifted off the plate. Eight ml of the F12 medium (same medium as #1 above) are added to each plate (10 ml total) to resuspend the cells and 5 ml are transferred to the 2 new plates containing 15 ml of the F12 media. • 4. The 10 large plates are incubated at 37° C.+5% CO2 for ˜2 days or until the cells are confluent. • 5. The 10 large plates are split into 60 large plates (using Trypsin-EDTA as #3 except 4 ml of F12 medium are added to resuspend cells and 1 ml is aliquoted to 6 new plates containing 19 ml of F12 medium each). • 6. Plates are incubated at […]+5% CO2 for ˜3 days or until cell are confluent. • 7. The 60 large plates are then split into 60 roller bottles (100-150 million cells/bottle). Medium is aspirated off, 2 ml of Trypsin-EDTA are added to each plate and incubated at RT for ˜2 minutes or until cells have lifted off plates. Eight ml of F12 medium are added to each plate to resuspend cells and the entire 10 ml are added to 1 roller bottle containing 90 ml of the F12 medium. • 8. The 60 roller bottles are immediately placed on their sides and transferred to the roller bottle incubator. They are incubated at 37° C.+5% CO2 for ˜3-5 days. Cells are spun at 30-40% motor speed in the Forma incubator. • 9. Medium is poured off and cells are washed 2× in PBS. • 10. Cells are then scraped off in 20 ml of PBS and the bottles are rinsed again with 5 ml of PBS to remove any remaining cells. Cells are stored on ice before membrane preparation. • 11. The yield for 60 D3 roller bottles has varied from ˜260-500 mg. • Note: All tissue culture reagents are from Gibco-BRL. C. Membrane Preparation
The cells are harvested into 250 ml centrifuge tubes with 100 volumes of cold phosphate buffered saline (PBS) and spun down (1200×G for 10 min at 4° C.). The medium is removed and 100 ml PBS are added to each centrifuge tube, cells are resuspend and spun down again. The PBS is removed and the final pellet is homogenized in an appropriate volume of 10% DMSO with a polytron on ice at a medium setting.
1. 0.5M Tris Buffer, pH 7.7 • a) 44.4 g Tris HCl 26.5 g Tris Base q.s. to 1 Liter (0.5 M Tris buffer, pH 7.7 at 37° C.) • b) make a 1:10 dilution in distilled H2O (0.05 M. Tris buffer, pH 7.7) 2. Tris Buffer Containing Physiological Salts • a) Stock buffer • NaCl 7.014 g • KCl 0.372 g • CaCl2 0.222 g • MgCl2 0.204 g • q.s. To 100 ml with 0.5 M. Tris Buffer • b) Dilute 1:10 in distilled H2O […]

T1 sequence (P35462 whole entry): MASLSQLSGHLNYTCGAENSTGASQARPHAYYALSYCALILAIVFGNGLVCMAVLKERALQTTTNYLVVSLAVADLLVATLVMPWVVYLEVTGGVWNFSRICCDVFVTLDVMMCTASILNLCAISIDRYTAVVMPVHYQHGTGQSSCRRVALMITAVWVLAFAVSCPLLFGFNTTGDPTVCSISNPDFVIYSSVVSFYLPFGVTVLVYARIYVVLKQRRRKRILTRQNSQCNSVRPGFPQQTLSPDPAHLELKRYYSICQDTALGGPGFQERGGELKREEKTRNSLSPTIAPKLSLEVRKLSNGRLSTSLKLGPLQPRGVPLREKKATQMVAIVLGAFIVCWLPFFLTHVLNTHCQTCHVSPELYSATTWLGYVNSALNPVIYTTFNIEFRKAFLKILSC

SMILES	pKi
O=C(NCCCCN1CCCN(c2csc3cc(F)ccc23)CC1)c1cc2ccccc2o1 [822226G]	9.09
Cn1c(C(=O)NCCCCN2CCCN(c3csc4cc(F)ccc34)CC2)cc2ccccc21 [822228G]	8.75
O=C(NCCCCN1CCCN(c2csc3cc(C(F)(F)F)ccc23)CC1)c1ccc(-c2ccccc2F)cc1 [S908665]	7.69
O=C(NCCCCN1CCCN(c2csc3cc(F)ccc23)CC1)c1cc2ccccc2[nH]1 [S977818]	8.73
O=C(NCCCCN1CCCN(c2csc3cc(F)ccc23)CC1)c1cc2ccccc2o1 [S977819]	8.49
COc1ccc2[nH]c(C(=O)NCCCCN3CCCN(c4csc5cc(F)ccc45)CC3)cc2c1 [S977820]	8.98
Cn1c(C(=O)NCCCCN2CCCN(c3csc4cc(F)ccc34)CC2)cc2ccccc21 [S977821]	8.78
O=C(NCCCCN1CCCN(c2csc3cc(F)ccc23)CC1)c1c[nH]c2ccccc12 [S977822]	8.39
O=C(NCCCCN1CCCN(c2csc3cc(F)ccc23)CC1)c1cccc2[nH]ccc12 [S977823]	8.40
CC1=C(C(=O)NCCCCN2CCCN(c3csc4cc(F)ccc34)CC2)Cc2ccccc21 [S977827]	9.01
Cn1cccc1C(=O)NCCCCN1CCCN(c2csc3cc(F)ccc23)CC1 [S977828]	8.16
O=C(NCCCCN1CCCN(c2csc3cc(F)ccc23)CC1)c1c[nH]cn1 [S977830]	8.24
O=C(NCCCCN1CCCN(c2csc3cc(C(F)(F)F)ccc23)CC1)c1cccc2ccccc12 [S980631]	7.00
O=C(NCCCCN1CCCN(c2csc3cc(C(F)(F)F)ccc23)CC1)c1cc2ccccc2s1 [S980636]	7.74
O=C(NCCCCN1CCCN(c2csc3cc(C(F)(F)F)ccc23)CC1)c1ccc(-c2ccccc2)cc1 [S980641]	7.54
O=C(NCCCCN1CCCN(c2csc3cc(C(F)(F)F)ccc23)CC1)c1cnc2ccccc2n1 [S980643]	7.02
COc1ccc2cc(C(=O)NCCCCN3CCCN(c4csc5cc(C(F)(F)F)ccc45)CC3)[nH]c2c1 [S980647]	7.77
Cn1c(C(=O)NCCCCN2CCCN(c3csc4cc(C(F)(F)F)ccc34)CC2)cc2ccccc21 [S980648]	7.46

SMILES	pKi
O=C(NCCCCN1CCCN(c2csc3cc(C(F)(F)F)ccc23)CC1)c1c[nH]c2ccccc12 [S980649]	7.27
O=C(NCCCCN1CCCN(c2csc3cc(C(F)(F)F)ccc23)CC1)c1cccc2[nH]ccc12 [S980650]	7.37
O=C(NCCCCN1CCCN(c2csc3cc(C(F)(F)F)ccc23)CC1)c1n[nH]c2ccccc12 [S980653]	7.21
Cc1nn(-c2ccccc2)nc1C(=O)NCCCCN1CCCN(c2csc3cc(C(F)(F)F)ccc23)CC1 [S980657]	6.76
Cc1ccc(Sc2cc(C(=O)NCCCCN3CCCN(c4csc5cc(C(F)(F)F)ccc45)CC3)ccn2)cc1 [S980659]	6.96
Cc1nnsc1C(=O)NCCCCN1CCCN(c2csc3cc(C(F)(F)F)ccc23)CC1 [S980660]	7.36
CSc1nsc(SC)c1C(=O)NCCCCN1CCCN(c2csc3cc(C(F)(F)F)ccc23)CC1 [S980661]	6.82
Cc1oc(-c2ccccc2)cc1C(=O)NCCCCN1CCCN(c2csc3cc(C(F)(F)F)ccc23)CC1 [S980662]	7.32
Cc1oc(-c2ccc(Cl)cc2)cc1C(=O)NCCCCN1CCCN(c2csc3cc(C(F)(F)F)ccc23)CC1 [S980663]	7.02
Cc1nn(-c2ccccc2)nc1C(=O)NCCCCN1CCCN(c2csc3cc(F)ccc23)CC1 [S981833]	8.05
O=C(NCCCCN1CCCN(c2csc3cc(F)ccc23)CC1)c1cccnc1Oc1ccccc1 [S981834]	8.96
Cc1ccc(Sc2ncccc2C(=O)NCCCCN2CCCN(c3csc4cc(F)ccc34)CC2)cc1 [S981835]	8.92
O=C(NCCCCN1CCCN(c2csc3cc(F)ccc23)CC1)c1ccno1 [S981836]	7.34
Cc1nnsc1C(=O)NCCCCN1CCCN(c2csc3cc(F)ccc23)CC1 [S981837]	8.89
CSc1nsc(SC)c1C(=O)NCCCCN1CCCN(c2csc3cc(F)ccc23)CC1 [S981838]	8.22
Cc1oc(-c2ccccc2)cc1C(=O)NCCCCN1CCCN(c2csc3cc(F)ccc23)CC1 [S981839]	8.85
Cc1oc(-c2ccc(Cl)cc2)cc1C(=O)NCCCCN1CCCN(c2csc3cc(F)ccc23)CC1 [S981840]	8.47
O=C(NCCCCN1CCCN(c2csc3cc(F)ccc23)CC1)c1ccc(-c2ccccc2F)cc1 [S981842]	8.66

Results, then the compound that gave them:

pKi	SMILES
8.94	O=C(NCCCCN1CCCN(c2csc3cc(F)ccc23)CC1)c1ccc2[nH]ccc2c1 [S977824]
9.05	O=C(NCCCCN1CCCN(c2csc3cc(F)ccc23)CC1)c1ccc2cc[nH]c2c1 [S977825]
8.38	O=C(NCCCCN1CCCN(c2csc3cc(F)ccc23)CC1)c1ccsc1 [S977829]
8.73	O=C(NCCCCN1CCCN(c2csc3cc(F)ccc23)CC1)c1ccc2[nH]cnc2c1 [S977831]
7.40	O=C(NCCCCN1CCCN(c2csc3cc(C(F)(F)F)ccc23)CC1)c1cccs1 [S980627]
6.96	O=C(NCCCCN1CCCN(c2csc3cc(C(F)(F)F)ccc23)CC1)c1cccc(Cl)c1 [S980628]
7.64	O=C(NCCCCN1CCCN(c2csc3cc(C(F)(F)F)ccc23)CC1)c1ccc2ccccc2c1 [S980632]
6.64	O=C(NCCCCN1CCCN(c2csc3cc(C(F)(F)F)ccc23)CC1)c1cccc(C(F)(F)F)c1 [S980633]
7.85	COc1ccccc1C(=O)NCCCCN1CCCN(c2csc3cc(C(F)(F)F)ccc23)CC1 [S980634]
7.15	O=C(NCCCCN1CCCN(c2csc3cc(C(F)(F)F)ccc23)CC1)c1cccc(F)c1 [S980635]
7.37	O=C(NCCCCN1CCCN(c2csc3cc(C(F)(F)F)ccc23)CC1)c1ccc(F)cc1 [S980637]
7.41	COc1ccc(C(=O)NCCCCN2CCCN(c3csc4cc(C(F)(F)F)ccc34)CC2)cc1OC [S980638]
7.40	Cc1ccccc1C(=O)NCCCCN1CCCN(c2csc3cc(C(F)(F)F)ccc23)CC1 [S980639]
7.37	COc1cccc(C(=O)NCCCCN2CCCN(c3csc4cc(C(F)(F)F)ccc34)CC2)c1 [S980640]
7.16	CC(C)(C)c1ccc(C(=O)NCCCCN2CCCN(c3csc4cc(C(F)(F)F)ccc34)CC2)cc1 [S980642]
6.24	O=C(NCCCCN1CCCN(c2csc3cc(C(F)(F)F)ccc23)CC1)c1ccc(C(F)(F)F)cc1 [S980644]
7.36	O=C(NCCCCN1CCCN(c2csc3cc(C(F)(F)F)ccc23)CC1)c1ccncc1 [S980645]
6.96	O=C(NCCCCN1CCCN(c2csc3cc(C(F)(F)F)ccc23)CC1)c1cccnc1Cl [S980646]
7.27	O=C(NCCCCN1CCCN(c2csc3cc(C(F)(F)F)ccc23)CC1)c1ccc2[nH]ccc2c1 [S980651]
7.77	O=C(NCCCCN1CCCN(c2csc3cc(C(F)(F)F)ccc23)CC1)c1ccc2cc[nH]c2c1 [S980652]
7.40	Cn1cccc1C(=O)NCCCCN1CCCN(c2csc3cc(C(F)(F)F)ccc23)CC1 [S980655]
7.55	O=C(NCCCCN1CCCN(c2csc3cc(C(F)(F)F)ccc23)CC1)c1ccsc1 [S980656]
8.21	O=C(NCCCCN1CCCN(c2csc3cc(C(F)(F)F)ccc23)CC1)c1ccc2nonc2c1 [S980664]
7.41	O=C(NCCCCN1CCCN(c2csc3cc(F)ccc23)CC1)c1cc(C(F)(F)F)cc(C(F)(F)F)c1 [S981844]
